Columns and labels:
Activin receptor type-1B = target: T1, Activin receptor type-1B (Homo sapiens, UniProt P36896); assay: Inhibition of recombinant human GST-tagged ALK4 catalytic domain expressed in baculovirus expression system by Z'-LYTE assay
T1 sequence (P36896 whole entry): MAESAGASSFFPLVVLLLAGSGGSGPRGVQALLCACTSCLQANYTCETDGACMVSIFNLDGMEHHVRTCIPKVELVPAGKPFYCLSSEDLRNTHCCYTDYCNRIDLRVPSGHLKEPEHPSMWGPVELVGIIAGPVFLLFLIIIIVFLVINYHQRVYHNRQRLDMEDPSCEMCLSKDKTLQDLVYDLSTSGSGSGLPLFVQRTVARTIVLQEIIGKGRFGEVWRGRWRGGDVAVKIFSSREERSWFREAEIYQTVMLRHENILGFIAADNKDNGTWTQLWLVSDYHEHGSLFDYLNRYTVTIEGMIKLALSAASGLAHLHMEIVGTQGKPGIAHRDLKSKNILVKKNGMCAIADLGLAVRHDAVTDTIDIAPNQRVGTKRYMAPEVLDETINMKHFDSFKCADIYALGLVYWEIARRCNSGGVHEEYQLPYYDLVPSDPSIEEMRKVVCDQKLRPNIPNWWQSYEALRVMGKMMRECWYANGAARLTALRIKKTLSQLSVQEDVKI

[1] = target: Death-associated protein kinase 1 (Homo sapiens, UniProt P53355); assay: Inhibition of recombinant human GST-tagged DAPK1 catalytic domain expressed in baculovirus expression system by Adapta assay
Ephrin type-A receptor 3 = target: T2, Ephrin type-A receptor 3 (Homo sapiens, UniProt P29320); assay: Inhibition of recombinant human His-tagged cytoplasmic EPHA3 expressed in baculovirus expression system by LanthaScreen assay
T2 sequence (P29320 whole entry): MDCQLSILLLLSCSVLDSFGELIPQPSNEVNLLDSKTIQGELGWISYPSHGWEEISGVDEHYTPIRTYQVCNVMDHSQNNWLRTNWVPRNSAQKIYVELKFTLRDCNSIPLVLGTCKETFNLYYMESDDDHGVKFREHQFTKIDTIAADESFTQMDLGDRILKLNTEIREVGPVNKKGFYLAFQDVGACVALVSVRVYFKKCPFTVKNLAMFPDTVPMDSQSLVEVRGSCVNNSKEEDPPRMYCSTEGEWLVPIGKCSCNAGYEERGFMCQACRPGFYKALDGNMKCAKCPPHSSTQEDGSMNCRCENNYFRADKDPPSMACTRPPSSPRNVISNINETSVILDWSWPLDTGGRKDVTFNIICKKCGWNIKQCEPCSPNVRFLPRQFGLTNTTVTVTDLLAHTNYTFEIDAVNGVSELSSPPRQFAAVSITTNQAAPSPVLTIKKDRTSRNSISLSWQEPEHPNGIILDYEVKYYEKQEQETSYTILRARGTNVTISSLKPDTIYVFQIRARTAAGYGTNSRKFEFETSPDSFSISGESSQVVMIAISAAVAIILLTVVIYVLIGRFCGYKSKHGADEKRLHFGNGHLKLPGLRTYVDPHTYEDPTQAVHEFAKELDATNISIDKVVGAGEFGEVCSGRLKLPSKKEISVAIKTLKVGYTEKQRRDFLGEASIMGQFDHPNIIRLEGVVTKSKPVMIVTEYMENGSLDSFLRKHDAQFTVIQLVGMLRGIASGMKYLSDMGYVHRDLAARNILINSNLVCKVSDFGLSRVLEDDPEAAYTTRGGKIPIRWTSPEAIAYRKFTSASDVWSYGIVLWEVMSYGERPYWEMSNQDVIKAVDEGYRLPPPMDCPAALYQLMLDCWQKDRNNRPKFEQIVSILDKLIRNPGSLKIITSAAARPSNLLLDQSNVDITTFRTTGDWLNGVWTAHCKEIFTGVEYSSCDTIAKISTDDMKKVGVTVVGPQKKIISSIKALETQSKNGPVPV

[2] = target: Glycogen synthase kinase-3 beta (Homo sapiens, UniProt P49841); assay: Inhibition of full-length recombinant human His-tagged GSK3B expressed in baculovirus expression system by Z'-LYTE assay
[3] = target: Vascular endothelial growth factor receptor 2 (Homo sapiens, UniProt P35968); assay: Inhibition of recombinant human His-tagged cytoplasmic KDR expressed in baculovirus expression system by Z'-LYTE assay
[4] = target: Tyrosine-protein kinase Lck (Homo sapiens, UniProt P06239); assay: Inhibition of full-length recombinant human His-tagged LCK expressed in baculovirus expression system by Z'-LYTE assay
[5] = target: Dual specificity mitogen-activated protein kinase kinase 1 (Homo sapiens, UniProt Q02750); assay: Inhibition of full-length recombinant human His-tagged MAP2K1 expressed in baculovirus expression system by LanthaScreen assay
[6] = target: Mitogen-activated protein kinase 1 (Homo sapiens, UniProt P28482); assay: Inhibition of full-length recombinant human GST-tagged MAPK1 expressed in Escherichia coli by Z'-LYTE assay
[7] = target: Mitogen-activated protein kinase 14 (Homo sapiens, UniProt Q16539); assay: Inhibition of full-length recombinant human GST-tagged MAPK14 alpha expressed in Escherichia coli by Z'-LYTE assay
[8] = target: PI3-kinase p110-delta/p85-alpha (Homo sapiens, UniProt O00329); assay: Inhibition of full-length recombinant human His-tagged PIK3P110D/P85A expressed in baculovirus expression system by Adapta assay
[9] = target: Rho-associated protein kinase 2 (Homo sapiens, UniProt O75116); assay: Inhibition of recombinant human N-terminal GST-tagged ROCK2 (1 to 552 residues) catalytic domain expressed in baculovirus expression system by Z'-LYTE assay
Angiopoietin-1 receptor = Angiopoietin-1 receptor (Homo sapiens, UniProt Q02763); assay: Inhibition of recombinant human GST-tagged cytoplasmic TEK expressed in baculovirus expression system by Z'-LYTE assay

Chain of Tyrosine-protein kinase Lck (P06239 whole entry): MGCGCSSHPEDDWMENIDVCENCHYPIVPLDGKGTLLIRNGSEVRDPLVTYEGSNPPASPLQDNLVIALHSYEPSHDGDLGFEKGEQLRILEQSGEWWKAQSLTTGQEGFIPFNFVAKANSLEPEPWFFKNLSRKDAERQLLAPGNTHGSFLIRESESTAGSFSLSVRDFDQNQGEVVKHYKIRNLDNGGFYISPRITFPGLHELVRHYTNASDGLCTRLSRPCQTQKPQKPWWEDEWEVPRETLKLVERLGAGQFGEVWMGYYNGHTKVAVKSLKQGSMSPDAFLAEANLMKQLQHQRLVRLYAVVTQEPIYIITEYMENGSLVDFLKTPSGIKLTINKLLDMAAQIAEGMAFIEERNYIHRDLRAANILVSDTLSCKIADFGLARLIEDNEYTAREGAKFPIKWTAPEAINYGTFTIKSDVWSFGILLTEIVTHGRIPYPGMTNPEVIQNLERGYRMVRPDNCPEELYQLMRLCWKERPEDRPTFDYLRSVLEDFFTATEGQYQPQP
Chain of Dual specificity mitogen-activated protein kinase kinase 1 (Q02750 whole entry): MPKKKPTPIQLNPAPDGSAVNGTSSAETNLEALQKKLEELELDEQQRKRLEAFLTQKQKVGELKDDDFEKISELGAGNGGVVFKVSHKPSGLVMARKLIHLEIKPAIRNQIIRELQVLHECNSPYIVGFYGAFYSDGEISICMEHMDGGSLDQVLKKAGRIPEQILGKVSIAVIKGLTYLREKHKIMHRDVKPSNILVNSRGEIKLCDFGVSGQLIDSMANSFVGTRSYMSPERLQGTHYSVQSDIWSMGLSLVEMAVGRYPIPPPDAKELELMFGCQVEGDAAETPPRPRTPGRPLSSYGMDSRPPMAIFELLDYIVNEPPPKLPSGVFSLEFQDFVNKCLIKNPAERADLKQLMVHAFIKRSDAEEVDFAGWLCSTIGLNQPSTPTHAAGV
Chain of Death-associated protein kinase 1 (P53355 whole entry, the tested form may be a part): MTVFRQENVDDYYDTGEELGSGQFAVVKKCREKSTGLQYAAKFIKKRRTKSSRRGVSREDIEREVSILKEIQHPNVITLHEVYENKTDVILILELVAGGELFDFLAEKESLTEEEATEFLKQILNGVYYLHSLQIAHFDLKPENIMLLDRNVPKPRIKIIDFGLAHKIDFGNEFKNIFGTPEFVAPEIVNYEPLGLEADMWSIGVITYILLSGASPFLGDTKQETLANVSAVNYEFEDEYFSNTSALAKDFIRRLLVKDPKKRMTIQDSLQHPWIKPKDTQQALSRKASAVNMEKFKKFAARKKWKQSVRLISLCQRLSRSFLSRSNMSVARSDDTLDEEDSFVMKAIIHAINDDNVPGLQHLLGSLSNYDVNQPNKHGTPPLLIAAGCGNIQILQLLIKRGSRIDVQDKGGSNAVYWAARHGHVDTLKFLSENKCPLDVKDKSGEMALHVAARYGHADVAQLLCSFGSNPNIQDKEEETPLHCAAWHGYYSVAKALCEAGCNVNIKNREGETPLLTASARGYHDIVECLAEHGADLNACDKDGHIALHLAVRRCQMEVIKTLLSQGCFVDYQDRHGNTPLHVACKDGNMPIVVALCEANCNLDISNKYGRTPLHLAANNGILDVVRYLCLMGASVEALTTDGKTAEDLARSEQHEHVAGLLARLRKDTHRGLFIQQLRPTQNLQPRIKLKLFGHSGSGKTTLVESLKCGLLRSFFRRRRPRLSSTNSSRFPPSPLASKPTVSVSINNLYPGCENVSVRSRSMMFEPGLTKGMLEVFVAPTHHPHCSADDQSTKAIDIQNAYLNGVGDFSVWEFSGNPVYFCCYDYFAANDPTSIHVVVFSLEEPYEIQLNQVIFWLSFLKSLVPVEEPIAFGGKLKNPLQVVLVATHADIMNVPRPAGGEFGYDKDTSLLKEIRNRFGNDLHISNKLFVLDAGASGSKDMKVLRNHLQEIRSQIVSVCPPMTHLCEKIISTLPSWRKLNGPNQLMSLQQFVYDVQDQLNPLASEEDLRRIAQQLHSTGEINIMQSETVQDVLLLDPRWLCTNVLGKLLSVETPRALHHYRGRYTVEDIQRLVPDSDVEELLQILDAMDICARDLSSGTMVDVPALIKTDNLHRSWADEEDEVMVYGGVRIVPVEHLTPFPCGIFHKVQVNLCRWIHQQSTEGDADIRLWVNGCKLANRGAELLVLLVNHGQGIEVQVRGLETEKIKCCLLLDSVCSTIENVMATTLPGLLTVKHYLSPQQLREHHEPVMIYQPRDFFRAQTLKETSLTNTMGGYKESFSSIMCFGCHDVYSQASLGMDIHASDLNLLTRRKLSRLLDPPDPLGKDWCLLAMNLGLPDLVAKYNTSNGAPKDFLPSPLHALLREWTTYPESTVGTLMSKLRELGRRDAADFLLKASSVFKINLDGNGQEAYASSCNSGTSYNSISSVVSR
Chain of Vascular endothelial growth factor receptor 2 (P35968 whole entry): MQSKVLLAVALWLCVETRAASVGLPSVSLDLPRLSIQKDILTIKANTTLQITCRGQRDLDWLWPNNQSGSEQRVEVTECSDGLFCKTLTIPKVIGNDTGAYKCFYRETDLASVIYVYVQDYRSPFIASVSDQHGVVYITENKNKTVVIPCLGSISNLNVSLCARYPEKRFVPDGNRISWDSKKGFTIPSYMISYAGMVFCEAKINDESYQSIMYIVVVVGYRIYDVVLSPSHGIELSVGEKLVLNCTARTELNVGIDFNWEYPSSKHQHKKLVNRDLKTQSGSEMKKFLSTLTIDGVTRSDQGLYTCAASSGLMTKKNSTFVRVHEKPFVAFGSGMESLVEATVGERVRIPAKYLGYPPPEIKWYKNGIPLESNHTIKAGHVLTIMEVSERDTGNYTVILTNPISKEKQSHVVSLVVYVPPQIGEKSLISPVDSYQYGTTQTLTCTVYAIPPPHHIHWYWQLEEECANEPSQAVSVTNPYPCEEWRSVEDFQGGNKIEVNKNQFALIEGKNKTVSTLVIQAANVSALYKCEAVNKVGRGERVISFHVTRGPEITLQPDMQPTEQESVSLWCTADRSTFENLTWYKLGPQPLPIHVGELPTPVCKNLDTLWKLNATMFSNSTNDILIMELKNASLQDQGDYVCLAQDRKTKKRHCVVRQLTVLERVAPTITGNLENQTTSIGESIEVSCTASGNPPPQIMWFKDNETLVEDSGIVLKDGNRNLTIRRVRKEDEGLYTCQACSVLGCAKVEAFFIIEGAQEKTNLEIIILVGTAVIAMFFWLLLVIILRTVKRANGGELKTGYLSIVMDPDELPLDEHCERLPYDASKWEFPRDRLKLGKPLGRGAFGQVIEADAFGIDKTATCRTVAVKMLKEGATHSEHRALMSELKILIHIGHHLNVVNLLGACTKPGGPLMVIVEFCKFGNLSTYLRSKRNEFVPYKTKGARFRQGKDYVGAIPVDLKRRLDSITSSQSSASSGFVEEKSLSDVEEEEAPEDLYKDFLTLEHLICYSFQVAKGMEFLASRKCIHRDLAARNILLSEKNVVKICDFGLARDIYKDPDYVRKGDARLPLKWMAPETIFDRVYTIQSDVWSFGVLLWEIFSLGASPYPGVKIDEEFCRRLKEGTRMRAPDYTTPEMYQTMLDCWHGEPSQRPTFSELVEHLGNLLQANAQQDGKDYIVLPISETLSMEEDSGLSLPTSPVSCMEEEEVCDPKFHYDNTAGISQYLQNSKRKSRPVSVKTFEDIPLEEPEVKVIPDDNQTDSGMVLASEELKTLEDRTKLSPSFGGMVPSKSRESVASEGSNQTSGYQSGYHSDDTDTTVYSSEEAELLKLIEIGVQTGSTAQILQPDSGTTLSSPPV
Chain of Mitogen-activated protein kinase 1 (P28482 whole entry): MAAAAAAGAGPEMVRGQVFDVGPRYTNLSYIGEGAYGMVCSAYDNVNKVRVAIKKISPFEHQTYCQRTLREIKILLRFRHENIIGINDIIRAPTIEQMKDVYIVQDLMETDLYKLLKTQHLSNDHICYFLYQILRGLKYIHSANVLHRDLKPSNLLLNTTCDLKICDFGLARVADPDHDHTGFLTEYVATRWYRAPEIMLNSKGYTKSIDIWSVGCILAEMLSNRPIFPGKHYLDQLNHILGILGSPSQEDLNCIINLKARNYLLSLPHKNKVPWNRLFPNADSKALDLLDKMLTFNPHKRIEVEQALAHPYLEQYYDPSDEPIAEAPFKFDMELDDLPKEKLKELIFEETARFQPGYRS
Chain of Mitogen-activated protein kinase 14 (Q16539 whole entry): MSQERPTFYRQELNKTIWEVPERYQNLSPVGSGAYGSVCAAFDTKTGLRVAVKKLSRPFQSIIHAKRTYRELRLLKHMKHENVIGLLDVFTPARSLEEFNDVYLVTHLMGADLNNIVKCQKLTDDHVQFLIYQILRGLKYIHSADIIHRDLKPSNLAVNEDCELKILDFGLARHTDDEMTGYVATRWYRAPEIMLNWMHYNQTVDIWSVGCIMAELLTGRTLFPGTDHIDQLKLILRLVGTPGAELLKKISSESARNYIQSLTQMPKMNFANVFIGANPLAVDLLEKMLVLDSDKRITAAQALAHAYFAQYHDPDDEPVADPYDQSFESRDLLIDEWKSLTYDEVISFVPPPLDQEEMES
Chain of Glycogen synthase kinase-3 beta (P49841 whole entry): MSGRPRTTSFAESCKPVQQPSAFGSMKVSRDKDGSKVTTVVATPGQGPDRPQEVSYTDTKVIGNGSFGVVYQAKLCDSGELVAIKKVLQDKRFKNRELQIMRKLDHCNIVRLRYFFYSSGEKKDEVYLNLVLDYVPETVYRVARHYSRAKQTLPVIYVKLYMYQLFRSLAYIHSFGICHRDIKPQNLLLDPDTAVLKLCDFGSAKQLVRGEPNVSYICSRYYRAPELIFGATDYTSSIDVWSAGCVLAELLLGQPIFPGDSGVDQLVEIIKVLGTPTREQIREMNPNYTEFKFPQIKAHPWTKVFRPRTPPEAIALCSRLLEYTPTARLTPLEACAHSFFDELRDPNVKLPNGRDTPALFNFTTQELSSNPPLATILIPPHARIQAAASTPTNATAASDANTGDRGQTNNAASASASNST

Row | SMILES | IC50 (Activin receptor type-1B) [nM] | IC50 [1] [nM] | IC50 (Ephrin type-A receptor 3) [nM] | IC50 [2] [nM] | IC50 [3] [nM] | IC50 [4] [nM] | IC50 [5] [nM] | IC50 [6] [nM] | IC50 [7] [nM] | IC50 [8] [nM] | IC50 [9] [nM] | IC50 (Angiopoietin-1 receptor) [nM]
1 | O=C(NCC(F)(F)F)c1cc(-c2cnn3cc(-c4ccc(OCCN5CCCCC5)cc4)cnc23)cs1 | 200 | < 10 | 180 | 220 | < 10 | 19 | 7200 | 12000 | 1200 | 55000 | 430 | 4700
2 | Cn1cc(-c2cnc3c(-c4csc(C(=O)NCC(F)(F)F)c4)cnn3c2)cn1 | 170 | < 10 | 52 | 84 | 15 | 37 | 12000 | 18000 | 36000 | 1500 | 560 | 4700
3 | Cn1cc(-c2cnc3c(-c4csc(C(=O)N[C@@H]5CCCC[C@@H]5N)c4)cnn3c2)cn1 (racemic) | 730 | 1.9 | 22 | 23 | 3.5 | 3.9 | 120 | 230 | 1400 | 3300 | 52 | 660
4 | Cc1sc(C(=O)N[C@@H]2[C@H](N)CCCC2(F)F)cc1-c1cnn2cc(Cl)cnc12 | > 100000 | 26 | > 100000 | 150 | 11000 | 5000 | 1100 | 1200 | > 100000 | > 100000 | 1100 | > 100000
